Data set [1] addresses T1, cloned human 5-HT1A receptors (Homo sapiens, UniProt P08908).
T1 construct: expressed in transfected cells
T1 sequence (P08908 1-422): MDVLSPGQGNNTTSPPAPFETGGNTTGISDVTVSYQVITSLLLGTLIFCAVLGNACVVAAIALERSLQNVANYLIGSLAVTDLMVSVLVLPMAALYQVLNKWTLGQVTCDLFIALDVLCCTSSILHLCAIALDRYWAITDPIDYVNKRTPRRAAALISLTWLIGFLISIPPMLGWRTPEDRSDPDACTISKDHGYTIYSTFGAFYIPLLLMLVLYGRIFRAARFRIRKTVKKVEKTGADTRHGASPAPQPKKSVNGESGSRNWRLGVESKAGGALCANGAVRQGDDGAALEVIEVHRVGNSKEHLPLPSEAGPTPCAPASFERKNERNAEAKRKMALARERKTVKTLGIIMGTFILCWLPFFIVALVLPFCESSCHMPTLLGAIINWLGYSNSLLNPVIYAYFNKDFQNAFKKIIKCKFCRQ
Description: 35S-GTPγS binding assay, agonist activity at 5-HT1A receptors. It counts as biochemical. The settings on record: membranes containing cloned human 5-HT1A receptors; for EC50: read-out: 5-HT1A Function EC50; for Emax / 5-HT1A Function Emax (maximum stimulatory effect): value in parentheses; for Emax: read-out: 5-HT1A Function Emax (maximum stimulatory effect); for 5-HT1A Function Emax (maximum stimulatory effect): in % (unit assumed). The text has this:
The agonist activity at 5-HT1A receptors was established by using a ^35S-GTPγS binding assay similar to that used by Lazareno and Birdsall (Br. J. Pharmacol., 1993, 109:1120). The binding assay determines the test compound's ability to affect the binding of ^35S-GTPγS to membranes containing cloned human 5-HT1A receptors. Agonists produce an increase in binding whereas antagonists produce no increase but rather reverse the effects of the standard agonist 8-OH-DPAT. The test compound's maximum stimulatory effect is represented as the Emax, while its potency is defined by the EC50.
(Binding of GTPγS marks nucleotide exchange on a G protein.)

In data set [2] the target is T2, human 5-HT1A receptors (Homo sapiens, UniProt P08908).
T2 construct: expressed in transfected cells; host or cells: CHO cells, stably transfected
T2 sequence (P08908 1-422): T1 sequence (P08908 1-422)
Description: [3H] 8-OH-DPAT displacement, affinity for the 5-HT1A receptor. The data set is classed as binding. The settings on record: CHO cells stably transfected with human 5-HT1A receptors. The text has this:
High affinity for the serotonin 5-HT1A receptor was established by testing the claimed compound's ability to displace [^3H] 8-OH-DPAT (dipropylaminotetralin) from the 5-HT1A serotonin receptor following a modification of the procedure of Hall et al. (J. Neurochem., 1985, 44: 1685) which utilizes CHO cells stably transfected with human 5-HT1A receptors.

Data set [3] concerns the target T3, 5-HT Transporter (Rattus norvegicus, UniProt P31652).
T3 construct: ability to displace ^3H-paroxetine from male rat cortical membranes; from tissue; host or cells: male rat cortex (membranes)
Description: 3H-paroxetine displacement, affinity for the serotonin transporter. It counts as binding. The settings on record: male rat cortical membranes.

Data on 22 molecules can be found in patent publication US7227023B2, “Quinoline 3-amino chroman derivatives” (Wyeth, priority 2003, dated 2007).

Counter-ions that a name gives are not always drawn. A value given as a limit tells only on which side of the number the result lay.

T3 sequence (P31652 whole entry): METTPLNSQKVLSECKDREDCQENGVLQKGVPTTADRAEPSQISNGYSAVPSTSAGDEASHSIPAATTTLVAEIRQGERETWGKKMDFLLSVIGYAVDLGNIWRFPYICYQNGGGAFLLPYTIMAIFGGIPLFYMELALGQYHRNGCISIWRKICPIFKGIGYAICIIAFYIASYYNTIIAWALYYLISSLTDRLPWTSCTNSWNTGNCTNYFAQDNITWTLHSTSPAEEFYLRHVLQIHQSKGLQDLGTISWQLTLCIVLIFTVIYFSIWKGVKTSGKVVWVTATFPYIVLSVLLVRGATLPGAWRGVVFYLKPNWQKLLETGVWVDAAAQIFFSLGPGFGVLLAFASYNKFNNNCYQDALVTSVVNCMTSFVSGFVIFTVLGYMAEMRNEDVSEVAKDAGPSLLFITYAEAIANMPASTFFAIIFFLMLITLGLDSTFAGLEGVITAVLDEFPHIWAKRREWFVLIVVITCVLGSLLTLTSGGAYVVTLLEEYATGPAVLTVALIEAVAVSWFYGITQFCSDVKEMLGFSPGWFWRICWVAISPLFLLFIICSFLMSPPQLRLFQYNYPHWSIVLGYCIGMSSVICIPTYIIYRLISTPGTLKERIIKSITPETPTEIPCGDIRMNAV

With `Fc1ccc2[nH]cc(CCCNC3COc4ccc5ncccc5c4C3)c2c1` (stereo not drawn) (as salt: hydrochloride) [Compound 1, N-[3-(5-fluoro-1H-indol-3-yl)propyl]-2,3-dihydro-1H-pyrano[3,2-f]quinolin-2-amine], the melting point is above 180 °C.
On the same count and under the same terms, the figure for `CCCN(CCCc1c[nH]c2ccc(F)cc12)C1COc2ccc3ncccc3c2C1` (stereo not drawn) (as salt: hydrochloride) [Compound 2, N-[3-(5-fluoro-1H-indol-3-yl)propyl]-N-propyl-2,3-dihydro-1H-pyrano[3,2-f]quinolin-2-amine] is above 148 °C.
Regarding `Fc1ccc2[nH]cc(CCNC3COc4ccc5ncccc5c4C3)c2c1` (stereo not drawn) (as salt: hydrochloride) [Compound 5], the melting point was 91 °C (dec.).
Turning to `CCCN(CCc1c[nH]c2ccc(F)cc12)C1COc2ccc3ncccc3c2C1` (stereo not drawn) (as salt: hydrochloride) [Compound 6, N-[2-(5-fluoro-1H-indol-3-yl)ethyl]-N-propyl-2,3-dihydro-1H-pyrano[3,2-f]quinolin-2-amine], the melting point was 67 °C.
As to `Fc1ccc2[nH]cc(CCCNC3COc4c(ccc5ncccc45)C3)c2c1` (stereo not drawn) (as salt: hydrochloride) [Compound 7, N-[3-(5-fluoro-1H-indol-3-yl)propyl]-3,4-dihydro-2H-pyrano[2,3-f]quinolin-3-amine], the melting point was 300 °C (dec.).
Same read-out and setting: then `CCCN(CCCc1c[nH]c2ccc(F)cc12)C1COc2c(ccc3ncccc23)C1` (stereo not drawn) (as salt: hydrochloride) [Compound 8, N-[3-(5-fluoro-1H-indol-3-yl)propyl]-N-propyl-3,4-dihydro-2H-pyrano[2,3-f]quinolin-3-amine], with 134 °C (dec.).
As for `Fc1ccc2[nH]cc(CCCCNC3COc4c(ccc5ncccc45)C3)c2c1` (stereo not drawn) (as salt: hydrochloride) [Compound 9, N-[4-(5-fluoro-1H-indol-3-yl)butyl]-3,4-dihydro-2H-pyrano[2,3-f]quinolin-3-amine], the melting point is 173 °C (dec.).
Same read-out and setting: the figure for `CCCN(CCCCc1c[nH]c2ccc(F)cc12)C1COc2c(ccc3ncccc23)C1` (stereo not drawn) (as salt: hydrochloride) [Compound 10, N-[4-(5-fluoro-1H-indol-3-yl)butyl]-N-propyl-3,4-dihydro-2H-pyrano[2,3-f]quinolin-3-amine] is 164 °C (dec.); for `Fc1ccc2[nH]cc(CCCNC3COc4ccc5ncccc5c4C3)c2c1` (single isomer, unassigned; (+)) (as salt: hydrochloride) [Compound 1a, (+)-N-[3-(5-fluoro-1H-indol-3-yl)propyl]-2,3-dihydro-1H-pyrano[3,2-f]quinolin-2-amine] it is 330 °C (dec.); for `CCCN(CCCc1c[nH]c2ccc(F)cc12)C1COc2ccc3ncccc3c2C1` (single isomer, unassigned; (+)) (as salt: hydrochloride) [Compound 4, (+)-N-[3-(5-fluoro-1H-indol-3-yl)propyl]-N-propyl-2,3-dihydro-1H-pyrano[3,2-f]quinolin-2-amine] it is 106 °C (dec.).
For `Fc1ccc2[nH]cc(CCCNC3COc4ccc5ncccc5c4C3)c2c1` (single isomer, unassigned; (+)) [Compound 1a, (+)-N-[3-(5-fluoro-1H-indol-3-yl)propyl]-2,3-dihydro-1H-pyrano[3,2-f]quinolin-2-amine], in data set [1], the EC50 stood at 0.73 µM and the Emax worked out at 100%. The molecule also had a Ki in data set [2] of 0.0239 µM.
In the case of `CCCN(CCCc1c[nH]c2ccc(F)cc12)C1COc2ccc3ncccc3c2C1` (single isomer, unassigned; (+)) [Compound 4, (+)-N-[3-(5-fluoro-1H-indol-3-yl)propyl]-N-propyl-2,3-dihydro-1H-pyrano[3,2-f]quinolin-2-amine], in data set [1], the EC50 was 0.3 µM and the “5-HT1A Function Emax (maximum stimulatory effect)” value (from here on “5-HT1A Function Emax”) stood at 99.92. The molecule also gave a Ki in data set [2] of 0.239 µM. In data set [3], this molecule returned a Ki of 0.019 µM.
For `Fc1ccc2[nH]cc(CCCNC3COc4c(ccc5ncccc45)C3)c2c1` (single isomer, unassigned; (+)) [Compound 7a, (+)-N-[3-(5-fluoro-1H-indol-3-yl)propyl]-3,4,-dihydro-2H-pyrano[2,3-f]quinolin-3-amine], in data set [1], the EC50 worked out at 0.32 µM and the “5-HT1A Function Emax” value was 74.80. Also, the inhibition constant Ki in data set [3] was 0.00283 µM.
Regarding `CCCN(CCCc1c[nH]c2ccc(F)cc12)C1COc2ccc3ncccc3c2C1` (single isomer, unassigned; (-)) (as salt: hydrochloride) [Compound 3, (−)-N-[3-(5-fluoro-1H-indol-3-yl)propyl]-N-propyl-2,3-dihydro-1H-pyran[3,2-f]quinolin-2-amine], the melting point was 83.5 °C (dec.).
Same read-out and setting: then `Fc1ccc2[nH]cc(CCCNC3COc4c(ccc5ncccc45)C3)c2c1` (single isomer, unassigned; (-)) (as salt: hydrochloride) [Compound 7b, (−)-N-[3-(5-fluoro-1H-indol-3-yl)propyl]-3,4-dihydro-2H-pyrano[2,3-f]quinolin-3-amine], with 250 °C (dec.).
As for `Fc1ccc2[nH]cc(CCCNC3COc4ccc5ncccc5c4C3)c2c1` (single isomer, unassigned; (-)) [Compound 1b, (−)-N-[3-(5-fluoro-1H-indol-3-yl)propyl]-2,3-dihydro-1H-pyrano[3,2-f]quinolin-2-amine], in data set [1], the concentration giving a half-maximal response (EC50) is 0.12 µM and the “5-HT1A Function Emax” value was 85.87. Moreover, in data set [2], the Ki is 0.314 µM.
Regarding `CCCN(CCCc1c[nH]c2ccc(F)cc12)C1COc2ccc3ncccc3c2C1` (single isomer, unassigned; (-)) [Compound 3, (−)-N-[3-(5-fluoro-1H-indol-3-yl)propyl]-N-propyl-2,3-dihydro-1H-pyran[3,2-f]quinolin-2-amine], in data set [1], the EC50 is 0.63 µM and the “5-HT1A Function Emax” value amounted to 54.72. In data set [2], this molecule gave a Ki of 0.21 µM. Affinity in data set [3] was put at a Ki of 0.008 µM.
Consider `Fc1ccc2[nH]cc(CCCNC3COc4ccc5ncccc5c4C3)c2c1` (stereo not drawn) [Compound 1, N-[3-(5-fluoro-1H-indol-3-yl)propyl]-2,3-dihydro-1H-pyrano[3,2-f]quinolin-2-amine], for which, in data set [1], the EC50 worked out at 0.18 µM and the Emax is 75.8%. This molecule also had a Ki in data set [2] of 0.0626 µM.
As for `Fc1ccc2[nH]cc(CCNC3COc4ccc5ncccc5c4C3)c2c1` (stereo not drawn) [Compound 5], in data set [1], the EC50 was 5 µM and the Emax came out at 30%. The same molecule had a Ki in data set [3] of 0.024 µM.
For `CCCN(CCCc1c[nH]c2ccc(F)cc12)C1COc2c(ccc3ncccc23)C1` (stereo not drawn) [Compound 8, N-[3-(5-fluoro-1H-indol-3-yl)propyl]-N-propyl-3,4-dihydro-2H-pyrano[2,3-f]quinolin-3-amine], in data set [1], the EC50 is 1.71 µM and the Emax amounted to 68.3%. In data set [3], the Ki came out at 0.015 µM.
Taken in the same sequence, the figures for `Fc1ccc2[nH]cc(CCCCNC3COc4c(ccc5ncccc45)C3)c2c1` (stereo not drawn) [Compound 9, N-[4-(5-fluoro-1H-indol-3-yl)butyl]-3,4-dihydro-2H-pyrano[2,3-f]quinolin-3-amine] were 5.94 µM, 100% and 0.00118 µM.
The molecule `CCCN(CCCCc1c[nH]c2ccc(F)cc12)C1COc2c(ccc3ncccc23)C1` (stereo not drawn) [Compound 10, N-[4-(5-fluoro-1H-indol-3-yl)butyl]-N-propyl-3,4-dihydro-2H-pyrano[2,3-f]quinolin-3-amine] displayed an inhibitory constant (Ki) in data set [3] of 0.012 µM.

As a reminder, the melting point is the temperature of the solid-liquid transition. As a reminder, the EC50 is the concentration needed to bring the measured effect to its halfway point. Usually Emax stands for the greatest response seen or fitted, relative to the assay's reference. As a reminder, the Ki is a measure of affinity in units of concentration, obtained from inhibition or displacement. Higher therefore signals weaker binding.
